Results: ChEMBL document CHEMBL4359906, “Design and synthesis of new N-terminal fatty acid modified-antimicrobial peptide analogues with potent in vitro biological activity” (Eur J Med Chem, 2019)
Converted amounts (≈) assume the structure as drawn. The source made the active and inactive calls. The calls are words filed in the database; no cut-off is given here.

Columns and labels:
Escherichia coli [1] = assay: Antibacterial activity against Escherichia coli ATCC 25922 after 18 hrs by CLSI based broth microdilution method; assay type: functional; conditions: ATCC 25922, 18 h
Escherichia coli [2] = assay: Antibacterial activity against Escherichia coli ATCC 43837 after 18 hrs by CLSI based broth microdilution method; assay type: functional; conditions: ATCC 43837, 18 h
Klebsiella pneumoniae [3] = assay: Antibacterial activity against Klebsiella pneumoniae ATCC 700603 after 18 hrs by CLSI based broth microdilution method; assay type: functional; conditions: Klebsiella pneumoniae, 700603, 18 h
Pseudomonas aeruginosa [4] = assay: Antibacterial activity against Pseudomonas aeruginosa ATCC 27853 after 18 hrs by CLSI based broth microdilution method; assay type: functional; conditions: ATCC 27853, 18 h
Staphylococcus aureus [5] = assay: Antibacterial activity against Staphylococcus aureus ATCC 25923 after 18 hrs by CLSI based broth microdilution method; assay type: functional; conditions: ATCC 25923, 18 h
Staphylococcus aureus [6] = assay: Antibacterial activity against methicillin-resistant Staphylococcus aureus 936 after 18 hrs by CLSI based broth microdilution method; assay type: functional; conditions: Staphylococcus aureus, 936, 18 h
Bacillus subtilis = assay: Antibacterial activity against Bacillus subtilis ATCC 23857 after 18 hrs by CLSI based broth microdilution method; assay type: functional; conditions: ATCC 23857, 18 h
Escherichia coli [7] = assay: Potentiation of polymyxin B-induced antibacterial activity against Escherichia coli ATCC 25922 assessed as FICI after 18 hrs by checker board assay; assay type: functional
Klebsiella pneumoniae [8] = assay: Potentiation of polymyxin B-induced antibacterial activity against Klebsiella pneumoniae ATCC 700603 assessed as FICI after 18 hrs by checker board assay; assay type: functional
Pseudomonas aeruginosa [9] = assay: Potentiation of polymyxin B-induced antibacterial activity against Pseudomonas aeruginosa ATCC 27853 assessed as FICI after 18 hrs by checker board assay; assay type: functional
Escherichia coli [10] = assay: Potentiation of rifampicin-induced antibacterial activity against Escherichia coli ATCC 25922 assessed as FICI after 18 hrs by checker board assay; assay type: functional
Klebsiella pneumoniae [11] = assay: Potentiation of rifampicin-induced antibacterial activity against Klebsiella pneumoniae ATCC 700603 assessed as FICI after 18 hrs by checker board assay; assay type: functional
Pseudomonas aeruginosa [12] = assay: Potentiation of rifampicin-induced antibacterial activity against Pseudomonas aeruginosa ATCC 27853 assessed as FICI after 18 hrs by checker board assay; assay type: functional
Escherichia coli [13] = assay: Antibacterial activity against Escherichia coli ATCC 25922 at 0.5 times MIC incubated for 18 hrs measured for 15 passages by CLSI based broth microdilution method; assay type: functional, organism-based
Escherichia coli [14] = assay: Antibiofilm activity against Escherichia coli ATCC 25922 after 24 hrs by crystal violet staining based assay; assay type: functional, organism-based
Staphylococcus aureus [15] = assay: Antibiofilm activity against Staphylococcus aureus ATCC 25923 after 24 hrs by crystal violet staining based assay; assay type: functional, organism-based
Pseudomonas aeruginosa [16] = assay: Antibiofilm activity against Pseudomonas aeruginosa ATCC 27853 after 24 hrs by crystal violet staining based assay; assay type: functional, organism-based
Escherichia coli [17] = assay: Antibiofilm activity against Escherichia coli ATCC 25922 at 2 times MIC after 24 hrs by crystal violet staining based assay; assay type: functional, organism-based
Pseudomonas aeruginosa [18] = assay: Antibiofilm activity against Pseudomonas aeruginosa ATCC 27853 at 0.25 to 2 times of MIC after 24 hrs by crystal violet staining based assay; assay type: functional, organism-based
Escherichia coli [19] = assay: Antimicrobial activity against Escherichia coli ATCC 25922 at 1 mM preincubated for 6 hrs in presence of 2000 ug/ml trypsin and measured after 18 hrs by microplate reader analysis; assay type: functional, organism-based
Escherichia coli [20] = assay: Antimicrobial activity against Escherichia coli ATCC 25922 at 1 mM preincubated for 6 hrs in presence of 2 ug/ml chymotrypsin and measured after 18 hrs by microplate reader analysis; assay type: functional, organism-based
Escherichia coli [21] = assay: Ratio of MIC for Escherichia coli ATCC 25922 preincubated for 1 hr in presence of 10% mouse serum and measured after 18 hrs to MIC for antibacterial activity against Escherichia coli ATCC 25922 after 18 hrs; assay type: functional
Escherichia coli [22] = assay: Ratio of MIC for Escherichia coli ATCC 25922 preincubated for 6 hrs in presence of 10% mouse serum and measured after 18 hrs to MIC for antibacterial activity against Escherichia coli ATCC 25922 after 18 hrs; assay type: functional
Escherichia coli [23] = assay: Induction of outer membrane permeabilization in Escherichia coli ATCC 25922 measured up to 12 mins by NPN-dye based assay; assay type: organism-based
Escherichia coli [24] = assay: Induction of inner membrane permeabilization in Escherichia coli ATCC 43837 assessed as increase in ONPG release at 4 times of MIC by ONPG dye based assay; assay type: organism-based
Escherichia coli [25] = assay: Induction of inner membrane permeabilization in Escherichia coli ATCC 43837 assessed as increase in ONPG release at 1 to 2 times of MIC by ONPG dye based assay; assay type: organism-based
Escherichia coli [26] = assay: Disruption of membrane integrity in Escherichia coli ATCC 25922 assessed as membrane damage by measuring PI fluorescence at 4 times of MIC incubated for 1 hr by PI dye based flow cytometric analysis (reference value: 1.35%); assay type: functional
Escherichia coli [27] = assay: Disruption of membrane integrity in Escherichia coli ATCC 25922 assessed as membrane damage by measuring PI fluorescence at 2 times of MIC incubated for 1 hr by PI dye based flow cytometric analysis (reference value: 1.35%); assay type: functional
Escherichia coli [28] = assay: Disruption of membrane integrity in Escherichia coli ATCC 25922 assessed as membrane damage by measuring PI fluorescence incubated for 1 hr by PI dye based flow cytometric analysis; assay type: functional, organism-based
Escherichia coli [29] = assay: Induction of membrane disruption in Escherichia coli ATCC 25922 assessed as rough membrane surface at 4 times of MIC after 2 hrs by SEM analysis; assay type: functional, organism-based
Escherichia coli [30] = assay: Induction of membrane disruption in Escherichia coli ATCC 25922 assessed as degeneration in membrane at 4 times of MIC after 2 hrs by SEM analysis; assay type: functional, organism-based
Escherichia coli [31] = assay: Ratio of antibacterial activity against Escherichia coli ATCC 25922 in presence of NaCl to antibacterial activity against Escherichia coli ATCC 25922; assay type: functional
Escherichia coli [32] = assay: Ratio of antibacterial activity against Escherichia coli ATCC 25922 in presence of KCl to antibacterial activity against Escherichia coli ATCC 25922; assay type: functional
Escherichia coli [33] = assay: Ratio of antibacterial activity against Escherichia coli ATCC 25922 in presence of MgCl2 to antibacterial activity against Escherichia coli ATCC 25922; assay type: functional
Escherichia coli [34] = assay: Ratio of antibacterial activity against Escherichia coli ATCC 25922 in presence of FeCl3 to antibacterial activity against Escherichia coli ATCC 25922; assay type: functional
Staphylococcus aureus [35] = assay: Ratio of antibacterial activity against Staphylococcus aureus ATCC 25923 in presence of NaCl to antibacterial activity against Staphylococcus aureus ATCC 25923; assay type: functional
Staphylococcus aureus [36] = assay: Ratio of antibacterial activity against Staphylococcus aureus ATCC 25923 in presence of KCl to antibacterial activity against Staphylococcus aureus ATCC 25923; assay type: functional
Staphylococcus aureus [37] = assay: Ratio of antibacterial activity against Staphylococcus aureus ATCC 25923 in presence of MgCl2 to antibacterial activity against Staphylococcus aureus ATCC 25923; assay type: functional
Escherichia coli [38] = assay: Induction of membrane disruption in Escherichia coli ATCC 25922 assessed as fracture in membrane at 4 times of MIC after 2 hrs by SEM analysis; assay type: functional, organism-based
Escherichia coli [39] = assay: Induction of ROS generation in Escherichia coli ATCC 25922; assay type: functional, organism-based

CCCC(=O)NC(Cc1cn(CCCC[C@H](NC(C)=O)C(=O)NCC(=O)N[C@@H](CC(C)C)C(=O)N[C@@H](CC(C)C)C(=O)N[C@H](CCCCN)C(=O)N[C@@H](CCCNC(=N)N)C(=O)N[C@H](C(=O)N[C@H](CCCCN)C(=O)N[C@H](C(=O)N[C@@H](CC(C)C)C(=O)N[C@@H](CC(C)C)C(N)=O)[C@@H](C)O)[C@@H](C)CC)nn1)C(=O)NCC(=O)N[C@@H](CC(C)C)C(=O)N[C@@H](CC(C)C)C(=O)N[C@H](CCCCN)C(=O)N[C@@H](CCCNC(=N)N)C(=O)N[C@H](C(=O)N[C@H](CCCCN)C(=O)N[C@H](C(=O)N[C@@H](CC(C)C)C(=O)N[C@@H](CC(C)C)C(N)=O)[C@@H](C)O)[C@@H](C)CC (stereo not given in full)
MIC (Escherichia coli [1]): 16 µM (≈ 42.7 µg/mL) | MIC (Escherichia coli [2]): 8 µM (≈ 21.3 µg/mL) | MIC (Klebsiella pneumoniae [3]): 32 µM (≈ 85.4 µg/mL) | MIC (Pseudomonas aeruginosa [4]): 8 µM (≈ 21.3 µg/mL) | MIC (Staphylococcus aureus [5]): 128 µM (≈ 342 µg/mL) | MIC (Staphylococcus aureus [6]): 128 µM (≈ 342 µg/mL) | MIC (Bacillus subtilis): 4 µM (≈ 10.7 µg/mL) | fractional inhibitory concentration index (FICI) (Escherichia coli [7]): 0.3125 | fractional inhibitory concentration index (FICI) (Klebsiella pneumoniae [8]): 0.1875 | fractional inhibitory concentration index (FICI) (Pseudomonas aeruginosa [9]): 0.375 | fractional inhibitory concentration index (FICI) (Escherichia coli [10]): 0.3125 | fractional inhibitory concentration index (FICI) (Klebsiella pneumoniae [11]): 0.3125 | fractional inhibitory concentration index (FICI) (Pseudomonas aeruginosa [12]): 0.375 | Activity (Escherichia coli [13]): Active | inhibition (Escherichia coli [14]): Dose-dependent effect | inhibition (Staphylococcus aureus [15]): Dose-dependent effect | inhibition (Pseudomonas aeruginosa [16]): Dose-dependent effect | inhibition (Escherichia coli [17]): Active | inhibition (Pseudomonas aeruginosa [18]): Active | Activity (Escherichia coli [19]): Active | Activity (Escherichia coli [20]): Active | Ratio (Escherichia coli [21]): 1 | Ratio (Escherichia coli [22]): 1 | Activity (Escherichia coli [23]): Dose-dependent effect | Activity (Escherichia coli [24]): Active | Activity (Escherichia coli [25]): Active | Activity (Escherichia coli [26]): 43.2% | Activity (Escherichia coli [27]): 21.2% | Activity (Escherichia coli [28]): Dose-dependent effect | Activity (Escherichia coli [29]): Active | Activity (Escherichia coli [30]): Active | Ratio (Escherichia coli [31]): 2 - 4 | Ratio (Escherichia coli [32]): 2 - 4 | Ratio (Escherichia coli [33]): 2 - 4 | Ratio (Escherichia coli [34]): 2 - 4 | Ratio (Staphylococcus aureus [35]): 2 - 4 | Ratio (Staphylococcus aureus [36]): 2 - 4 | Ratio (Staphylococcus aureus [37]): 2 - 4 | Activity (Escherichia coli [38]): Active | Activity (Escherichia coli [39]): Active
